Relative contractile potency data for one molecule are collected here from ChEMBL document CHEMBL1130552, “Synthesis and biological evaluation of 14,15-dehydro-LTA4 analog” (1997).

For this experiment, the species on record is Cavia porcellus. Kind of experiment: Relative contractile potency in guinea pig ileum assay compared to 14,15-dehydro-LTA 4 methyl ester. The class given is functional.

Structures are written as SMILES.

`CCCCCC#CC\C=C/C=C/C=C/[C@@H](SC[C@H](NC(=O)CC[C@H](N)C(=O)O)C(=O)NCC(=O)O)[C@@H](O)CCCC(=O)O` had a Relative contractile potency of 0.9.
